The values that follow come from PMC10706763, “Molecular and Functional Characterization of Pheromone Binding Protein 2 from Cyrtotrachelus buqueti (Coleoptera: Curculionidae)” (International Journal of Molecular Sciences, 2023).

“Also recorded” adds a separate entry of the source.

Experiment [1] has as its system CbuqPBP1. More on the design: method as in doi:10.1111/phen.12209. To be noted: cited from earlier work.
In experiment [2] the test system is virgin males of C. buqueti. More on the design: method as in earlier work. Conditions: compared with mated males and virgin females; cited from earlier work.
Experiment [3] has as its system antennae of male C. buqueti adults. In words: EAG assays after RNAi of CbuqPBP2. It is filed as in vivo, Cyrtotrachelus buqueti. Conditions: 72 h after dsRNA injection; chemical at 100 μg/μL in n-hexane. How it is done: To evaluate the function of CbuqPBP2 in C. buqueti olfaction, the dsRNA-injected, RNase-free water-injected, or non-injected male adults were subjected to EAG (Syntech, Hilversum, Netherlands) at 72 h after injection. Based on the results of the fluorescence competition binding assay, the chemicals (dibutyl phthalate, ethyl hexanoate, styrene and linalool) that bound with CbuqPBP2 were selected for electrophysiological experiments. The tested chemicals were diluted in n-hexane to prepare a solution at a concentration of 100 μg/μL, and n-hexane was used as a blank control.
The antenna for EAG detection was cut off and amputated at the base and tip. The basal and distal ends of the excised antenna were linked to a reference electrode and recording electrode by one teardrop of Spectra R360 electrically conductive gel, respectively. A filter paper strip (2 cm × 0.5 cm) loaded with ten microliters of each chemical solution was inserted into the sample tube (10 cm in length) as a stimuli source. An air-stimulus controller (CS-05 model) was used to deliver the stimulus. The stimulation time was 0.5 s, and the interval for antennal recovery was 30 s. The response of the antenna to each chemical was detected using a high-impedance amplifier (IDAC2) and analyzed using the EAG software (version 2.0) supplied with the instrument. The chemicals were tested randomly for each antenna. The antenna was stimulated one time with n-hexane before and after each chemical stimulation. Three to six antennae were measured for each chemical in independent experiments, and each antenna was tested three times. EAG responses were recorded in mV, and the relative EAG response of each chemical was calculated by using the following formula: Relative EAG response=EAGA/EAGCK1+EAGCK2/2 where EAG(A) represents the EAG response to the chemical; EAGCK1 and EAKCK2 represent EAG responses to n-hexane before and after each chemical stimulation, respectively.

Experiment [4] addresses CbuqPBP2 (Cyrtotrachelus buqueti, UniProt A0A1L3KPR5). In words: Fluorescence competitive binding assay with 1-NPN probe. To be noted: increasing ligand concentration, Figure 4C,D. How it is done: The fluorescent probe 1-NPN and the tested chemicals with a purity of at least more than 96% were purchased from Aladdin Biochemical Technology Co., LTD. (Shanghai, China). The fluorescence binding assay was carried out on a Lumina fluorescence spectrophotometer (Thermo Fisher Scientific, MA, USA) using a 1 cm light path quartz cuvette at 25 °C. All the slit widths for both excitation and emission were 5 nm. The 1-NPN and all the compounds tested were dissolved in chromatography-grade methanol to a final concentration of 1 mM. The CbuqPBP2 protein was dissolved in 50 mM Tris–HCl buffer at pH 7.4 to a final concentration of 2 μM. […] The scanning range was 350–550 nm at each concentration, and the maximum fluorescence intensities were plotted against the free ligand concentration.

CbuqPBP2, sequence (A0A1L3KPR5 entry or part of it): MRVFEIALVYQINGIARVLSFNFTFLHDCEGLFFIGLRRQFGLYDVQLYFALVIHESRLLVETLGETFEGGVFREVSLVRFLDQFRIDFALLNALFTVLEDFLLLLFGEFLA

Take `CCCCOC(=O)c1ccccc1C(=O)OCCCC` [Dibutyl phthalate]: the “binding affinity of CbuqPBP1” value in experiment [1] is “strongest binding affinity”. In addition, in experiment [2], the attraction effect result is “more significant attraction effect”. In addition, the “EAG response of dsCbuqPBP2-treated male adults versus water-injected and non-injected controls” value in experiment [3] is reported as “significantly reduced”.

Consider `CCCCCC(=O)OCC` [Ethyl hexanoate], for which the “EAG response of dsCbuqPBP2-treated male adults versus water-injected and non-injected controls” value in experiment [3] is reported as “did not significantly decrease”.

`c1ccc2[nH]ccc2c1` [Indole]: the “fluorescence intensity in competitive binding curve” value in experiment [4] was “the fluorescence intensity enhanced as the ligand concentration increased”.

For `C=CC(C)(O)CCC=C(C)C` (stereo not drawn) [Linalool], the “EAG response of dsCbuqPBP2-treated male adults versus water-injected and non-injected controls” value in experiment [3] is given as “not significantly reduced; also recorded: did not influence the EAG response”.

For the compound `CC(C)=CCC/C(C)=C/CC/C(C)=C/CC/C=C(\C)CC/C=C(\C)CCC=C(C)C` [Squalene], in experiment [4], the “fluorescence intensity in competitive binding curve” value is on record as “the fluorescence intensity enhanced as the ligand concentration increased”.

With `C=Cc1ccccc1` [Styrene], the “binding affinity of CbuqPBP1” value in experiment [1] is “lower binding affinity”. Also, in experiment [3], the “EAG response of dsCbuqPBP2-treated male adults versus water-injected and non-injected controls” value is “significantly reduced”.
